Values of other authors in article PMC9207678 (Journal of Mass Spectrometry and Advances in the Clinical …, 2022).

Conditions: ratio to insulin, ref [2], [3]

C-peptide
half-life in circulation relative to insulin: 6–10 times
